Test results published in the supplement of paper PMC10307832.

Assays:
Test in all cases: relative viability (nuclei count vs DMSO), 5 days (fraction); higher = more cells survive
Bleomycin + Phenformin = compound: CC1=C(N=C(N=C1N)[C@H](CC(=O)N)NC[C@@H](C(=O)N)N)C(=O)N[C@@H]([C@H](C2=CN=CN2)OC3C(C(C(C(O3)CO)O)O)OC4C(C(C(C(O4)CO)O)OC(=O)N)O)C(=O)N[C@H](C)[C@H]([C@H](C)C(=O)N[C@@H]([C@@H](C)O)C(=O)NCCC5=NC(=CS5)C6=NC(=CS6)C(=O)NCCC[S+](C)C)O [Bleomycin] + N=C(N)NC(=N)NCCc1ccccc1 [Phenformin] (partner 250 µM); details: main component drawn
How it was run: (§1)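 One day after seeding in 1536-well plates, lung cancer cell lines were dosed by pin tool. Dosing was either single-drug or a fixed anchor-drug dose plus five library-drug doses (not always all listed) in √10 steps. After 5 days, nuclei were stained in one fix-and-stain step and counted on 4× images, and relative viability is the nuclei count of treated wells over that of vehicle wells, given as the median of duplicate plates.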

Bleomycin + Linsitinib = compound: CC1=C(N=C(N=C1N)[C@H](CC(=O)N)NC[C@@H](C(=O)N)N)C(=O)N[C@@H]([C@H](C2=CN=CN2)OC3C(C(C(C(O3)CO)O)O)OC4C(C(C(C(O4)CO)O)OC(=O)N)O)C(=O)N[C@H](C)[C@H]([C@H](C)C(=O)N[C@@H]([C@@H](C)O)C(=O)NCCC5=NC(=CS5)C6=NC(=CS6)C(=O)NCCC[S+](C)C)O [Bleomycin] + C[C@]1(O)C[C@@H](c2nc(-c3ccc4ccc(-c5ccccc5)nc4c3)c3c(N)nccn32)C1 [Linsitinib] (partner 1 µM); details: main component drawn
How it was run: as §1

Etoposide + Alpelisib = compound: COc1cc([C@@H]2c3cc4c(cc3[C@@H](O[C@@H]3O[C@@H]5CO[C@@H](C)O[C@H]5[C@H](O)[C@H]3O)[C@H]3COC(=O)[C@H]23)OCO4)cc(OC)c1O [Etoposide] + Cc1nc(NC(=O)N2CCC[C@H]2C(N)=O)sc1-c1ccnc(C(C)(C)C(F)(F)F)c1 [Alpelisib] (partner 2 µM)
How it was run: as §1

Bleomycin + Vorinostat = compound: CC1=C(N=C(N=C1N)[C@H](CC(=O)N)NC[C@@H](C(=O)N)N)C(=O)N[C@@H]([C@H](C2=CN=CN2)OC3C(C(C(C(O3)CO)O)O)OC4C(C(C(C(O4)CO)O)OC(=O)N)O)C(=O)N[C@H](C)[C@H]([C@H](C)C(=O)N[C@@H]([C@@H](C)O)C(=O)NCCC5=NC(=CS5)C6=NC(=CS6)C(=O)NCCC[S+](C)C)O [Bleomycin] + O=C(CCCCCCC(=O)Nc1ccccc1)NO [Vorinostat] (partner 1 µM); details: main component drawn
How it was run: as §1

UMC-11
relative viability (Bleomycin + Phenformin; first compound 0.01 µM): 0.311
relative viability (Bleomycin + Phenformin; first compound 0.03162 µM): 0.335
relative viability (Bleomycin + Phenformin; first compound 0.1 µM): 0.29
relative viability (Bleomycin + Phenformin; first compound 0.3162 µM): 0.283
relative viability (Bleomycin + Phenformin; first compound 1 µM): 0.233
relative viability (Bleomycin + Linsitinib; first compound 0.01 µM): 0.975
relative viability (Bleomycin + Linsitinib; first compound 0.03162 µM): 0.91
relative viability (Bleomycin + Linsitinib; first compound 0.1 µM): 0.863
relative viability (Bleomycin + Linsitinib; first compound 0.3162 µM): 0.647
relative viability (Bleomycin + Linsitinib; first compound 1 µM): 0.498
relative viability (Etoposide + Alpelisib; first compound 0.01 µM): 0.943
relative viability (Etoposide + Alpelisib; first compound 0.03162 µM): 1.11
relative viability (Etoposide + Alpelisib; first compound 0.3162 µM): 0.352
relative viability (Etoposide + Alpelisib; first compound 1 µM): 0.222
relative viability (Bleomycin + Vorinostat; first compound 0.01 µM): 0.364
relative viability (Bleomycin + Vorinostat; first compound 0.03162 µM): 0.346
relative viability (Bleomycin + Vorinostat; first compound 0.1 µM): 0.311
relative viability (Bleomycin + Vorinostat; first compound 0.3162 µM): 0.278
relative viability (Bleomycin + Vorinostat; first compound 1 µM): 0.232
